Consider 4 compounds from patent publication US20190134115A1, “Activated Lactobacillus Reuteri Strains for Selective Pathogen Inhibition in a Human Microbial Community” (BioGaia AB, priority 2016, published 2019).

In brackets after ≈: the same amount, converted by molar mass. Where two headings read alike, the source gives them in different places.

Assay [1] concerns C. difficile-associated diarrheal isolates. As to conditions: cited from earlier work.
The test system of the next assay is C. difficile R20291. To be noted: C. difficile R20291, CDI patient stool; cited from earlier work.
A further assay concerns L. casei LC-39. As to the kind of experiment: Antibiotic susceptibility testing, broth microdilution MIC. The class given is cell-based. To be noted: for MIC: Lacticaseibacillus casei; for MIC / Minimum inhibitory concentration: MRS, anaerobic, 24 h, ≥90% reduction in growth. How it is done:
(§1) Antibiotic Susceptibility Testing. Susceptibility of Lactobacillus spp. to antibiotics was determined using standard broth microdilution procedures (24). […] Plates were incubated anaerobically at 37° C. for 24 h. Optical density measurements (600 nm) were recorded using a Synergy™ H1 Hybrid Multi-Mode Microplate Reader (BioTek Instruments, Inc, Winooski, Vt.). […] Significance was determined using student's t test with equal variance.
(In general: Broth dilution looks for growth in wells or tubes with falling amounts of substance.)

For the next assay, the system named is L. rhamnosus LR-34. The assay is described as above. The class given is cell-based. As to conditions: for MIC: Lacticaseibacillus rhamnosus; for MIC / Minimum inhibitory concentration: MRS, anaerobic, 24 h, ≥90% reduction in growth. How it is done:
as §1

Another assay has as its system L. reuteri 17938. The assay is described as above. The class given is cell-based. To be noted: read-out: Minimum inhibitory concentration. How it is done:
(§2) Antibiotic Susceptibility Testing. Susceptibility of Lactobacillus spp. to antibiotics was determined using standard broth microdilution procedures (24). […] Plates were incubated anaerobically at 37° C. for 24 h. Optical density measurements (600 nm) were recorded using a Synergy™ H1 Hybrid Multi-Mode Microplate Reader (BioTek Instruments, Inc, Winooski, Vt.). Results were compared to a growth control (lactobacilli only), and the minimum inhibitory concentration (MIC) endpoint was the concentration of antibiotic where ≥90% reduction in growth was observed. Significance was determined using student's t test with equal variance.

The next assay has as its system L. gasseri LG-3. Described as above. Format: cell-based. As to conditions: for MIC: Lactobacillus gasseri, read-out: Minimum inhibitory concentration. The procedure:
as §2

Another assay relates to L. reuteri 6475. Described as above. The class given is cell-based. To be noted: read-out: Minimum inhibitory concentration. The procedure: as §2
In another assay the test system is C. difficile CD2015. As to the kind of experiment: C. difficile invasion of antibiotic-treated human fecal mini-bioreactor arrays (MBRA), qPCR. To be noted: clindamycin-treated MBRA, increase not statistically significant. The class given is cell-based. The procedure:
Mini-bioreactor array (MBRA) preparation, operation and sample collection. Effects of reuterin on C. difficile growth in a human fecal microbial community were tested in MBRAs. Replicate MBRAs (twelve independent 15-mL reactors) and bioreactor medium (BRM2) were prepared as previously described (26). Reactors were inoculated with an anaerobic preparation of a 25% fecal slurry from an anonymous healthy donor (5% w/v final concentration) and were operated in an anaerobic chamber with 5% H2, 5% CO2, 90% N2 atmosphere. After 16 h of outgrowth in batch culture mode, continuous-flow cultivation was initiated at a flow rate of 0.94 ml/h (16 h retention time). After 36 h of flow, reactor communities were treated twice daily with clindamycin (500 mg/L final concentration) for 4.5 days. Reactors were transitioned to fresh medium on day 4 of clindamycin treatment, with 6 reactors receiving standard BRM2 medium and 6 reactors receiving BRM2 supplemented with glycerol (10% v/v final concentration). […]
Samples (1 ml) were collected from each MBRA as described (27) prior to the initiation of continuous flow and then daily through the duration of the experiment. […] Microbial community and metabolite analysis, and quantification of C. difficile levels by quantitative PCR (qPCR) were performed as described below. […]
Quantification of C. difficile by qPCR. […]

Setting [2] is: LC39, L. casei LC-39, read-out: Minimum inhibitory concentration.
Where [3] appears, read: LR34, L. rhamnosus LR-34, read-out: Minimum inhibitory concentration.
Setting [4] is: Limosilactobacillus reuteri, L. reuteri 17938, MRS, anaerobic, 24 h, ≥90% reduction in growth.
The mark [5] stands for this setting: LG3, L. gasseri LG-3, MRS, anaerobic, 24 h, ≥90% reduction in growth.
Setting [6] is: Limosilactobacillus reuteri, 6475, 24 h.

Regarding `CCc1c(Cl)c(O)c(Cl)c(O)c1C(=O)O[C@H]1[C@H](O)[C@H](OC)[C@H](OC/C2=C\C=C\C[C@H](O)/C(C)=C/[C@H](CC)[C@@H](O[C@@H]3OC(C)(C)[C@@H](OC(=O)C(C)C)[C@H](O)[C@@H]3O)/C(C)=C/C(C)=C/C[C@@H]([C@@H](C)O)OC2=O)O[C@@H]1C` [Fidaxomycin, fidaxomicin], the MIC90 – broadly, the lowest concentration that inhibits either 90% of growth or 90% of the strains tested, depending on the study – in assay [1] was 0.5 µg/mL (≈ 0.473 µM). Besides, the Minimum inhibitory concentration in the assay on C. difficile R20291 was 0.5 µg/mL (≈ 0.473 µM). The “MIC relative to the MIC90 for C. difficile” value with L. casei LC-39 (L. casei LC-39, fold greater) amounted to 4 fold; with L. rhamnosus LR-34 (L. rhamnosus LR-34, fold greater) it was 4 fold. For the same compound, the MIC in the assay with L. casei LC-39 (setting [2]) is 2 µg/mL; in the assay on L. rhamnosus LR-34 (setting [3]) it was 2 µg/mL; in the assay with L. reuteri 17938 (setting [4]), above 32 µg/mL; in the assay on L. gasseri LG-3 (setting [5]), 2 µg/mL; in the assay with L. reuteri 6475 (Limosilactobacillus reuteri, L. reuteri 6475, MRS, anaerobic, 24 h, ≥90% reduction in growth), above 32 µg/mL.

With `Cc1ncc([N+](=O)[O-])n1CCO` [Metronidazole, metronidazole], the MIC90 in assay [1] is 2 µg/mL (≈ 11.7 µM). Moreover, the Minimum inhibitory concentration was 2 µg/mL (≈ 11.7 µM) in the assay on C. difficile R20291; above 256 µg/mL in the assay with L. casei LC-39 (L. casei LC-39); above 256 µg/mL with L. rhamnosus LR-34 (L. rhamnosus LR-34); above 256 µg/mL with L. gasseri LG-3 (L. gasseri LG-3, MRS, anaerobic, 24 h, ≥90% reduction in growth). The MIC is above 256 µg/mL in the assay with L. casei LC-39 (setting [2]); above 256 µg/mL in the assay with L. rhamnosus LR-34 (setting [3]); above 256 µg/mL in the assay with L. reuteri 17938 (setting [4]); above 256 µg/mL in the assay with L. gasseri LG-3 (setting [5]); 128 µg/mL in the assay with L. reuteri 6475 (setting [6]).

Regarding `CN[C@H](CC(C)C)C(=O)N[C@H]1C(=O)N[C@@H](CC(N)=O)C(=O)N[C@H]2C(=O)N[C@H]3C(=O)N[C@H](C(=O)N[C@H](C(=O)O)c4cc(O)cc(O)c4-c4cc3ccc4O)[C@H](O)c3ccc(c(Cl)c3)Oc3cc2cc(c3O[C@@H]2O[C@H](CO)[C@@H](O)[C@H](O)[C@H]2O[C@H]2C[C@](C)(N)[C@H](O)[C@H](C)O2)Oc2ccc(cc2Cl)[C@H]1O` [Vancomycin, vancomycin], the MIC90 in assay [1] was 4 µg/mL (≈ 2.76 µM). The Minimum inhibitory concentration is 4 µg/mL (≈ 2.76 µM) in the assay on C. difficile R20291, 256 µg/mL in the assay with L. casei LC-39 (L. casei LC-39) and 256 µg/mL in the assay on L. rhamnosus LR-34 (L. rhamnosus LR-34). For the same compound, the MIC in the assay with L. casei LC-39 (LC39, 24 h, read-out: Minimum inhibitory concentration, L. casei LC-39) is above 256 µg/mL; with L. rhamnosus LR-34 (LR34, 24 h, read-out: Minimum inhibitory concentration, L. rhamnosus LR-34), above 256 µg/mL; with L. reuteri 17938 (Limosilactobacillus reuteri, 17938, 24 h), 256 µg/mL; in the assay with L. gasseri LG-3 (LG3, 24 h) it was 1 µg/mL; with L. reuteri 6475 (setting [6]), 256 µg/mL.

`OCC(O)CO` [glycerol]: the “C. difficile concentrations, fold greater than controls” value in the assay on C. difficile CD2015 was around 10 fold.
